Source: paper PMC5007466, “VCP recruitment to mitochondria causes mitophagy impairment and neurodegeneration in models of Huntington's disease” (Nature Communications, 2016)

Experiments:
[1] = system: HdhQ111 / HdhQ7 mouse striatal cells; experiment: LDH release (cell death) after serum withdrawal; type: cell-based
Procedure: HdhQ7 and Q111 mouse striatal cells were treated with the HV-3 peptide or the control peptide TAT (3 μM, each) in an FBS-free DMEM medium or in DMEM containing 10% serum for 24 h. Medium from the cultured cells was harvested. Proteins from the medium were purified using Amicon Ultra 0.5 ml centrifugal filters (Millipore). HMGB1 release into the medium was then analysed by Western blotting with anti-HMGB1 antibody. In parallel, cell death was determined by measuring LDH release into the culture medium, using LDH-Cytotoxicity Assay Kit II (Roche, USA) by following the manufacturer's instruction.

[2] = system: HD patient-iPS cell derived neurons; experiment: Mitochondrial length along neurites; type: cell-based, human; details: 1 μM per day for 5 days
Procedure: iPS cells from a normal subject and a HD patient (carrying 41 CAG repeats) were differentiated into neurons using the protocol from our previous studies. Briefly, iPS cells were plated onto 6-well plates precoated with 2.5% Matrigel and allowed to reach 90% confluence in feeder-free medium. For the first 10 days, cells were treated with SB431542 (10 μM; Tocris Bioscience) and Noggin (100 ng/ml) in Neural Media (NM) containing Neurobasal and DMEM (1:1), B27 supplement minus vitamin A (50 × , Invitrogen), N2 supplement (100 × , Invitrogen), GlutaMax (Invitrogen, 100 × ), FGF2 ([…]) and EGF ([…]), 100 units per ml penicillin and 100 μg ml^−1 streptomycin). For the next 10 days, cells were treated with human recombinant Sonic hedgehog (SHH, 200 ng/ml), DKK1 (100 ng/ml) and BDNF (20 ng/ml) and 10 μM Y27632 (Sigma) in neuronal differentiation medium containing Neurobasal and DMEM (1:3), B27, N2, GlutaMax and PS. […]
In patient-iPS cell-derived neurons, to ensure the observation of mitochondria in the medium spiny neurons, the cells were stained with a mitochondrial marker (anti-TOM20, 1:500) and markers for medium spiny neurons (DARPP-32, 1:200, Epitomics). The quantitation of neurite length was conducted only in the neurons immunopositive for both DARPP-32 and Tuj1 (neuron-specific class III beta-tubulin, 1:5,000, Covance). At least 50 neurons/group were counted.

C57Black mice [3] = experiment: Toxicity analysis in naive mice; type: in vivo, mouse
Procedure: (§1) Supplementary Figure 8 : Toxicity analysis of HV -3in naïve mice .
(§2) We performed a toxicity analysis of HV-3 in mice. Six -week-old C57Black mice were treated with saline or peptide HV-3 at 3mg/kg/day by Alzet pump implantation. After 4- week treatment, the plasma, blood and whole mouse bodies of mice were collected. Examination on blood chemistry (Supplementary Table 1), hematology (Supplementary Table 2) and general necropsy of mice were performed at the Animal Diagnostic Laboratory at Stanford University. The experimenter who conducted the analysis was blind to the treatment groups. Automated hematology was performed on the Sysmex XT-2000iV analyzer system. Blood smears were made for all full CBC samples and reviewed by a medical technologist. Manual differentials were performed as indicated by species and automated analysis. Chemistry analysis was performed on the Siemens Dimension Xpand analyzer.
(a) Frozen tissue sections of brain and spleen were stained with anti-CD3 antibody by immunohistochemistry. There is no observed difference in the immuno-density of CD3 between saline-and HV-3- treated groups. Scale bar: 100 µm. (b) The size and weight of spleens in mice treated with saline or peptide HV-3 were compared. Left: the ratio of spleen weight to body weight was calculated and expressed as mean ± SEM of five mice in each group. Right: the images of spleens of mice treated with saline or peptide HV-3. There is no observed difference in the size of the spleens. Paired Student’s t test. Four-week sustained treatment with HV-3 by pump implantation had no effects on blood chemistry (Supplementary Table 1), hematology (Supplementary Table 2), and gross necropsy of naïve mice when compared to mice treated with saline. A four-week treatment with HV-3 had […] on immuno-density of CD3, a marker of T-cell for adaptive immune response, in the brains and spleens of naïve mice (a). Treatment with HV-3 had no effects on the size and weight of the spleens (b). […]

C57Black mice [4] = experiment: Hematology of naive mice; type: in vivo, mouse; details: 3 mg/kg/day, 4 weeks
Procedure: as §1
as §2, with “analyzer. […]” for “analyzer.”
Student’s t test. Four-week sustained treatment with HV-3 by pump implantation had no effects on blood chemistry (Supplementary Table 1), hematology (Supplementary Table 2), and gross necropsy of naïve mice when compared to mice treated with saline. […]
Table 2: Effects of 4-w eek treatment w ith HV-3 on hematology of naïve mice […]
Mean SD Mean SD p-value unit n

[5] = 3 mg/kg/day, 4 weeks, versus saline

CSCC[C@H](NC(=O)[C@@H](NC(=O)[C@H](CC(C)C)NC(=O)[C@@H](NC(=O)[C@H](Cc1c[nH]cn1)NC(=O)CCCCCNC(=O)[C@H](CCCNC(=N)N)NC(=O)[C@H](CCCNC(=N)N)NC(=O)[C@H](CCCNC(=N)N)NC(=O)[C@H](CCC(N)=O)NC(=O)[C@H](CCCNC(=N)N)NC(=O)[C@H](CCCNC(=N)N)NC(=O)[C@H](CCCCN)NC(=O)[C@H](CCCCN)NC(=O)[C@H](CCCNC(=N)N)NC(=O)CNC(=O)[C@@H](N)Cc1ccc(O)cc1)C(C)C)C(C)C)C(=O)N[C@@H](CS)C(=O)N[C@@H](C)C(=O)N[C@H](C(N)=O)[C@@H](C)O [HV-3]
LDH release ([1]; HdhQ111 cells, 24 h serum withdrawal, 3 μM): reduced the release of high mobility group box 1 (HMGB1) and lactate dehydrogenase (LDH)
cell survival rate, wt ([1]; wt counterparts of the HD models): only minor effects
mitochondrial length along neurites [2]: improved MMP and mitochondrial length along neurites
toxicity (C57Black mice [3]; 3 mg kg^−1 per day, 4-week Alzet pump): not toxic to naive mice
CD3 immunodensity in brain and spleen (C57Black mice [3]; [5]): no significant effects on the immunodensity of CD3
gross necropsy (C57Black mice [3]; [5]): no effects
size and weight of spleens (C57Black mice [3]; 3 mg/kg/day, 4 weeks, versus saline, n = 5): no obvious effects on the size and weight of the spleens
Eosinophils (C57Black mice [4]; mean, n = 4/group): 37.00
HCT (C57Black mice [4]; mean, n = 4/group): 44.60%
Hgb (C57Black mice [4]; mean, n = 4/group): 13.93 gm/dL
IRF (C57Black mice [4]; mean, n = 4/group): 53.97%
Lymphocytes (C57Black mice [4]; mean, n = 4/group): 1645.00
MCH (C57Black mice [4]; mean, n = 4/group): 14.90 pg
MCHC (C57Black mice [4]; mean, n = 4/group): 31.27 g/dL
MCV (C57Black mice [4]; mean, n = 4/group): 47.67 fL
Monocytes (C57Black mice [4]; mean, n = 4/group): 182.33
Neutrophils (C57Black mice [4]; mean, n = 4/group): 1525.67
Platelet count (C57Black mice [4]; mean, n = 4/group): 1021.33 K/uL
RBC (C57Black mice [4]; mean, n = 4/group): 9.37 M/uL
RDW (C57Black mice [4]; mean, n = 4/group): 21.77%
Reticulocyte Count (C57Black mice [4]; mean, n = 4/group): 4.30%
WBC (C57Black mice [4]; mean, n = 4/group): 3.39 K/uL
hematology (overall) (C57Black mice [4]; versus saline): no effects
